Experimental data taken from patent US11904052B2, “Methods for ameliorating infusion reactions” (ARBUTUS BIOPHARMA CORPORATION, priority 2016, dated 2024).
Entries after “also recorded” stand apart in the source; their conditions may differ.

Legend:
thromboxane B2 = assay: Plasma thromboxane B2 after LNP2 infusion in the conscious minipig; format: in vivo, Gottingen minipigs; details: iv bolus 10 minutes prior to LNP2 infusion; ketorolac 1 mg/kg, dexamethasone 0.3 mg/kg
Excerpt: (§1) Four (4) treatment naïve female Gottingen minipigs (Marshall Farms, N.Y.) were surgically implanted with a D70-PCT PhysioTel implantable radiotelemetry transmitter (Data Sciences International, St. Paul, Minn.) to allow for the measurement of physical activity, body temperature, ECG, heart rate, and arterial blood pressure. The pigs were allowed to recover from surgery for at least 7 days prior to use in the study.
(§2) Following surgical recovery, the same four pigs (15-20 kg) received a 60-minute intravenous infusion of vehicle (0.9% saline), LNP2, LNP2+ketorolac, or LNP2+dexamethasone as outlined in the Table 1. Each treatment cohort was separated by a 7-day washout period.
(§3) Just prior to each infusion and at approximately 1, 3, 6 and 24 hours after the start of each infusion, a mixed venous blood sample was taken, processed to plasma, stored frozen, and used for subsequent analysis of thromboxane B2 (11-dehydrothromboxane B2). Heart rate and arterial blood pressure was continuously recorded from 30 minutes prior to each infusion to 24 hours after the start of each infusion.

conscious minipig = assay: Mean arterial blood pressure by radiotelemetry after LNP2 infusion in the conscious minipig; format: in vivo, Gottingen minipigs; details: iv bolus 10 minutes prior to LNP2 infusion; ketorolac 1 mg/kg, dexamethasone 0.3 mg/kg
Excerpt: as §1, §2, §3

With `O=C(c1ccccc1)c1ccc2n1CCC2C(=O)O` (stereo not drawn) [ketorolac] as the molecule, how does the “effect on the LNP2-induced increase in thromboxane B2” value (thromboxane B2) read?
The value was “mitigated completely”.

And the “effect on the acute infusion reaction to LNP2 (increase in blood pressure)” value (conscious minipig)?
The value was “completely prevented”.

And the “effect on the delayed hypotension after LNP2 infusion” value (conscious minipig)?
Its value is “prevented; also recorded: effectively mitigated”.
